In patent US20240043860A1, “NOVEL HYDROXYPHENYLPYRUVATE DIOXYGENASE POLYPEPTIDES AND METHODS OF USE THEREOF” (Syngenta Crop Protection AG, priority 2020, published 2024):
Read-outs that look alike come from different tables or passages of the source.

Columns and labels:
[1] = target: HPPD variant AVESA V201 (SEQ ID NO: 8) (Avena sativa, UniProt A0ACD5V6K6, A327R/G411A/I340E/L359M/V218I/V260A); type: biochemical; conditions: AVESA V201, SEQ ID NO: 8
Description: (§1) 25 ul of the overnight cultures were inoculated into fresh 96-deepwell block containing 1 ml Formedium Autoinduction Media (AIM). The AIM cultures were grown for 3h at 37° C. (900rpm) and then transferred to 20° C. overnight (900rpm) to allow protein expression. The overnight cultures were centrifuged and 500 ul of Cellytic B (Sigma Aldrich) was added to resuspend the cell pellets. The coupled HGO assay (Siehl et al, 2014) is used to generate IC50 values for the HPPD variants of interest.
(§2) E. coli BL21 (DE3) cells were transformed with a pET24a vector containing a C-terminally his-tagged Arabidopsis HGO gene, grown and induced overnight as described for the HPPD variants above. The cell pellet was resuspended in phosphate buffered saline at pH 7.4 containing 10% Glycerol, 1mm Tris[2-carboxyethyl] phosphine-HCl (TCEP) plus 30 mM Imidazole and lysed using lysozyme/benzonase. The extract was clarified by low speed centrifugation and purified in the same buffer down a 1 ml His Gravitrap column. The bound HGO was eluted in 0.25M imidazole and the fractions pooled and beaded into liquid nitrogen. All procedures apart from the centrifugation and beading steps were carried out under a nitrogen atmosphere.
(§3) The coupled HGO assay is carried out by adding 10 ul of HPPD extract to a 96-well plate and then adding 40 ul of reaction buffer (50 mM Bis Tris Propane, pH7.0, 25 mM sodium-L-ascorbate, 400μM mercaptoethanol, 50 μM Fe(II)SO4). The plates are left to incubate for 5 minutes on ice. […] 200 ul of HPP/HGO (197 μM hydroxyphenylpyruvic acid, 16 μl/ml Homogentisic Acid Oxidase in reaction buffer as described above) buffer is then added to the well and the reaction is regularly monitored (e.g. every 30 seconds-5 minutes) for absorbance at 330 nm for a given time period (e.g., for between 15-60 minutes). The data can then be used to calculate the IC50 value for each HPPD variant of interest.

[2] = target: HPPD variant AVESA V162 (SEQ ID NO: 122) (Avena sativa, UniProt A0ACD5V6K6, A327R/I340E/L359M/V218I); assay: biochemical; type: biochemical
Description: as §1, §2, §3

[3] = target: HPPD variant AVESA V306 (SEQ ID NO: 32) (Avena sativa, UniProt A0ACD5V6K6, A327R/I340E/L359M/P271N/R214G/V218I); assay: biochemical; type: biochemical
Description: as §1, §2, §3

[4] = target: HPPD variant AVESA V313 (SEQ ID NO: 38) (Avena sativa, UniProt A0ACD5V6K6, A327R/I340E/L359Y/P271N/R214G/V218I/V260A); assay: biochemical; type: biochemical
Description: as §1, §2, §3

[5] = target: HPPD variant AVESA V332 (SEQ ID NO: 44) (Avena sativa, UniProt A0ACD5V6K6, A327R/I340E/K404N/L359M/P271N/R214G/V218I/V260A); assay: biochemical; type: biochemical
Description: as §1, §2, §3

[6] = target: HPPD variant AVESA V351 (SEQ ID NO: 50) (Avena sativa, UniProt A0ACD5V6K6, A327R/G411A/I340E/L359Y/R214G/S304T/V218I); assay: biochemical; type: biochemical
Description: as §1, §2, §3

[7] = target: HPPD variant AVESA V208 (SEQ ID NO: 14) (Avena sativa, UniProt A0ACD5V6K6, A327R/I340E/L359M/P271N/V218I); assay: biochemical; type: biochemical
Description: as §1, §2, §3

[8] = target: HPPD variant AVESA V349 (SEQ ID NO: 47) (Avena sativa, UniProt A0ACD5V6K6, A327R/I340E/L359M/P271N/S304T/V218I); assay: biochemical; type: biochemical
Description: as §1, §2, §3

[9] = system: HPPD variant AVESA V349 (SEQ ID NO: 47); assay: biochemical; type: biochemical, Avena sativa
Description: as §1, §2, §3

[10] = target: HPPD variant AVESA V357 (SEQ ID NO: 53) (Avena sativa, UniProt A0ACD5V6K6, A327R/I340E/L359M/P271N/R214G/S304T/V218I); assay: biochemical; type: biochemical
Description: as §1, §2, §3

[11] = system: HPPD variant AVESA V357 (SEQ ID NO: 53); assay: biochemical; type: biochemical, Avena sativa
Description: as §1, §2, §3

[12] = AVESA V162, SEQ ID NO: 122, read-out: IC50
[13] = AVESA V306, SEQ ID NO: 32, read-out: IC50
[14] = AVESA V313, SEQ ID NO: 38, read-out: IC50
[15] = AVESA V332, SEQ ID NO: 44, read-out: IC50
[16] = AVESA V351, SEQ ID NO: 50, read-out: IC50
[17] = AVESA V208, SEQ ID NO: 14, read-out: IC50
[18] = AVESA V349, SEQ ID NO: 47, read-out: IC50
[19] = AVESA V357, SEQ ID NO: 53, read-out: IC50

Sequence of HPPD variant AVESA V357 (SEQ ID NO: 53) (Avena sativa, UniProt A0ACD5V6K6, A327R/I340E/L359M/P271N/R214G/S304T/V218I) (A0ACD5V6K6 entry or part of it R214G/V218I/P271N/S304T/A327R/I340E/L359M): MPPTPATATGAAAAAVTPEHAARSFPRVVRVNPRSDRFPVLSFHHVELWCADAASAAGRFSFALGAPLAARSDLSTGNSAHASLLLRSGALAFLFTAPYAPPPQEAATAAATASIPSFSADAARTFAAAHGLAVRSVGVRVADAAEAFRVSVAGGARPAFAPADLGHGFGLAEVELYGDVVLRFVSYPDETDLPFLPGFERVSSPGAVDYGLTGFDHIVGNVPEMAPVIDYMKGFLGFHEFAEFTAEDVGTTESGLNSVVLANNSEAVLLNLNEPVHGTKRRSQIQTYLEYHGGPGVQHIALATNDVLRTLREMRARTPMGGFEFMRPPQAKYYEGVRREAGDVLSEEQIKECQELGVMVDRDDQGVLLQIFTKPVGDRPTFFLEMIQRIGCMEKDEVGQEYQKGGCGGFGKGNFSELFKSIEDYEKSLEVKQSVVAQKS
Sequence of HPPD variant AVESA V332 (SEQ ID NO: 44) (A0ACD5V6K6 entry or part of it R214G/V218I/V260A/P271N/A327R/I340E/L359M/K404N): as the sequence (A0ACD5V6K6 entry or part of it R214G/V218I/P271N/S304T/A327R/I340E/L359M) above, with V260A, T304S, K404N counted along it
Sequence of HPPD variant AVESA V306 (SEQ ID NO: 32) (A0ACD5V6K6 entry or part of it R214G/V218I/P271N/A327R/I340E/L359M): as the sequence (A0ACD5V6K6 entry or part of it R214G/V218I/P271N/S304T/A327R/I340E/L359M) above, with T304S counted along it
Sequence of HPPD variant AVESA V349 (SEQ ID NO: 47) (Avena sativa, UniProt A0ACD5V6K6, A327R/I340E/L359M/P271N/S304T/V218I) (A0ACD5V6K6 entry or part of it V218I/P271N/S304T/A327R/I340E/L359M): as the sequence (A0ACD5V6K6 entry or part of it R214G/V218I/P271N/S304T/A327R/I340E/L359M) above, with G214R counted along it
Sequence of HPPD variant AVESA V208 (SEQ ID NO: 14) (A0ACD5V6K6 entry or part of it V218I/P271N/A327R/I340E/L359M): as the sequence (A0ACD5V6K6 entry or part of it R214G/V218I/P271N/S304T/A327R/I340E/L359M) above, with G214R, T304S counted along it
Sequence of HPPD variant AVESA V313 (SEQ ID NO: 38) (A0ACD5V6K6 entry or part of it R214G/V218I/V260A/P271N/A327R/I340E/L359Y): as the sequence (A0ACD5V6K6 entry or part of it R214G/V218I/P271N/S304T/A327R/I340E/L359M) above, with V260A, T304S, M359Y counted along it
Sequence of HPPD variant AVESA V162 (SEQ ID NO: 122) (A0ACD5V6K6 entry or part of it V218I/A327R/I340E/L359M): as the sequence (A0ACD5V6K6 entry or part of it R214G/V218I/P271N/S304T/A327R/I340E/L359M) above, with G214R, N271P, T304S counted along it
Sequence of HPPD variant AVESA V351 (SEQ ID NO: 50) (A0ACD5V6K6 entry or part of it R214G/V218I/S304T/A327R/I340E/L359Y/G411A): as the sequence (A0ACD5V6K6 entry or part of it R214G/V218I/P271N/S304T/A327R/I340E/L359M) above, with N271P, M359Y, G411A counted along it
Sequence of HPPD variant AVESA V201 (SEQ ID NO: 8) (A0ACD5V6K6 entry or part of it V218I/V260A/A327R/I340E/L359M/G411A): as the sequence (A0ACD5V6K6 entry or part of it R214G/V218I/P271N/S304T/A327R/I340E/L359M) above, with G214R, V260A, N271P, T304S, G411A counted along it

Row | Molecule | IC50 [1] [nM] | IC50 [2, 12] [nM] | IC50 [3, 13] [µM] | IC50 [4, 14] [nM] | IC50 [5, 15] [µM] | IC50 [6, 16] [µM] | IC50 [7, 17] [µM] | IC50 [8, 18] [µM] | IC50 fold improvement compared to SEQ ID NO: 122 [9] [×] | IC50 [10, 19] [µM] | IC50 fold improvement over SEQ ID NO: 122 [11] | IC50 [2] [nM] | IC50 [3] [µM] | IC50 [4] [nM] | IC50 [5] [µM] | IC50 [6] [µM] | IC50 [7] [µM] | IC50 [8] [µM] | IC50 [10] [µM]
1 | COc1ccc(-n2nc(C)cc(C(=O)C3C(=O)CCCC3=O)c2=O)cc1OC [Herbicide C, dioxopyritrione] | 890 | 250 | > 50 | ~200 | > 50 | 14.3 | > 50 | > 50 | > 200 | 0.28 | no improvement |  |  |  |  |  |  |  | 
2 | Cn1nnnc1NC(=O)c1ccc(C(F)(F)F)nc1-n1cncn1 [Herbicide D, N-(1-methyltetrazol-5-yl)-2-(1,2,4-triazol-1-yl)-6-(trifluoromethyl)pyridine-3-carboxamide] |  |  |  |  |  |  |  |  | 29 |  | 36 × | 6730 | 129 | 205000 | 134 | > 500 | 182 | 197 | 243
3 | bicyclopyrone | > 500000 | 380 | 10.2 | < 390 | 102 | > 500 | 39.3 | 10.2 | 27 | 42.1 | 110 × |  |  |  |  |  |  |  | 
